According to patent US12344599B2, “Prodigiosin analogs and methods of use” (Institute For Cancer Research, priority 2016, dated 2025):
Where two headings read alike, the source gives them in different places. * marks the point of attachment. Cbz = O=C(OCc1ccccc1)*; CH2F = FC*

Assays:
Type in all cases: cell-based, human
[1] = test system: γ-H2AX in HT29 and SW480 cells; experiment: γ-H2AX DNA damage marker, western blot and immunofluorescence staining
Experimental: (§1) After treatment, protein lysates were collected for Western blot analysis. A total of […] of protein was used for SDS-PAGE. After primary and secondary antibody incubations, the signal was detected by a chemiluminescence detection kit, imaged by Syngene (Imgen Technologies). Antibodies for PUMA (for IHC), p53 (Santa Cruz Biotechnology), caspase 8, cleaved caspase 8, caspase 9, caspase 3, cleavage PARP, eIF2α, p-eIF2α (Ser51), CHOP, ATF4, DR5, FOXO3a, p-FOXO3a (Ser253), NF-κB p65, p-NF-κB p65 (Ser536), c-Jun, p-c-Jun (Ser63), JNK, p-JNK (Thr183/Tyr185), PUMA (for WB), c-Myc, phosphor-S62-cMyc (Cell Signaling Technology), Noxa, p21 (Calbiochem), p73 (Bethyl laboratories Inc), Ran (BD Biosciences), […] (Sigma).
A total of 5×10^4 cells were seeded in each well of 8-well chamber slides. After treatment, cells were fixed and permeabilized by methanol:acetone (1:1) for 20 minutes at −20° C. Fixed cells were blocked by 2% BSA for 1 hour, followed by primary antibody incubation for 1 hours and Cy3-conjuated secondary antibody incubation for 1 hour at room temperature. After washing, cells were stained with DAPI for 10 minutes at room temperature. Cells were mounted, and examined by fluorescence microscopy.
DNA damage induces the p53 pathway and leads to cell apoptosis. To study whether the p53 pathway restoration by compound PG3-Oc is due to DNA damage, the uptake and localization of PG3-Oc was investigated in cells. PG3-Oc and prodigiosin are red fluorescent compounds, and their localization in live cells can be monitored by fluorescence microscopy. PG3-Oc and prodigiosin rapidly entered cells within 2 hours of incubation and remained in the cytosol at the 8-hour time point in HT29 and SW480 cells (FIG. 46). […] Baldino, et al. reported that prodigiosin localized to the cytoplasm, but not within the nucleus, and no γ-H2AX signal was detected in A549 cancer cells (Baldino et al., Bioorg Med Chem Lett, 2006, 16, 701-704). […]

[2] = test system: SW480, DLD1 and p53-null cell line HCT116; experiment: CellTiter-Glo luminescent cell viability assay (Example 1)
Experimental: SW480, DLD-1, DLD1-p73KD, HCT116, and p53-null HCT116, MRC5 and Wi38 cells were seeded at 5,000 cells per well on 96-well plates. […] Then, cells were mixed with an equal volume of CellTiter-Glo® reagents (Promega), following the manufacturer's protocol, and bioluminescence imaging was measured using the IVIS imager.

p53-target genes = experiment: Western blotting of p53-target genes (Example 1)
Experimental: After treatment, protein lysates were collected for Western blot analysis. Twenty-five micrograms of protein were used for SDS-PAGE. After primary and secondary antibody incubations, the signal was detected with a chemiluminescent detection kit, followed by autoradiography or Syngen. […] In FIG. 10, p53-null HCT116 cells were treated with P01 and P306, alone or in combination with SiCon or SiTAp73, in various concentrations for 6 hours, and tested for p73 (C.S.), p73 (Bethyl), P63-α, p53, DR5, Puma, P21, and Ran proteins.

c-Myc and PUMA = experiment: Western blot of c-Myc, PUMA and p53 target genes; details: HT29 cells
Experimental: as §1
To test this hypothesis, two ERK1/2 inhibitors that act by different mechanisms were used. U0126 is an indirect ERK1/2 inhibitor. It inhibits MEK1 kinase and blocks the phosphorylation of ERK1/2. […] Consistent with a previous publication (Choi et al., Genes Dev, 2010, 24, 1236-1241), SCH772984 can inhibit ERK1/2 function after ERK1/2 is phosphorylated (FIG. 73), and the same is observed for PG3-Oc (FIG. 73).

HT29 cells = experiment: Flow cytometry sub-G1 (PI staining) analysis; details: HT29, 20 μM Z-VAD-FMK co-treated with 1 μM PG3-Oc, 48 hours
Experimental: • 1) Cell lines: HT29, SW480, DLD-1, HCT116, and p53-null HCT116 cells, H1975, MDA-MD-231, U251, FaDu, CAL-27, PANC-1, Aspc-1, and MRC5 were obtained from the ATCC and cultured as recommended. Cells were regularly authenticated by bioluminescence, growth, and morphologic observation. The cells were routinely examined for Mycoplasma and all cell lines underwent STR authentication. • 2) Western blotting: After treatment, protein lysates were collected for Western blot analysis. 15 μg of protein was used for SDS-PAGE. After primary and secondary antibody incubations, the signal was detected by chemiluminescent detection kit, imaged by Syngene (Imgen Technologies). Antibodies for Puma, FLIPL/S and p53 (Santa Cruz Biotechnology), cleaved caspase 8, caspase 9, caspase 3, cleavage PARP, eIF2α, p-eIF2α(Ser51), CHOP, ATF4, DR5, FOXO3a, p-FOXO3a(Ser253), NF-κB p65, p-NF-κB p65(Ser536), c-Jun, p-c-Jun(Ser63), JNK, p-JNK(Thr183/Tyr185) (Cell Signaling Technology), Noxa, p21 (Calbiochem), p73 (Bethyl laboratories Inc), Ran (BD Biosciences), […] (Sigma). • 3) Cell viability assay: Cells were seeded in 96-well plate (6×10^3 cells/well). Cells were treated with different concentrations of compounds or dimethyl sulfoxide (DMSO) control for 72 hours. The cell viability was assessed by CellTiterGlo bioluminescent cell proliferation assay (Promega), following the manufacturer's protocol. Bioluminescence imaging was measured using the IVIS imager. Percentage of cell viability (mean±SEM) at each dose was calculated against the respective DMSO control. The IC50 values were determined from the sigmoidal dose-response curves using GraphPad Prims4. • 4) Caspase activity assay: Cells were seeded in 96-well plate (1×10^4 cells/well). Cells were treated with different concentrations of compounds or DMSO control for 24 hours. The caspase 3/7 activity was assessed by Caspase-Glo® 3/7 Assay kit (Promega), following the manufacturer's protocol. Bioluminescence imaging was measured using the IVIS imager. Caspase activity was normalized to cell numbers and compared to those of DMSO treatment as control in each cell line. Data is reported as mean RLU+SEM (n=3). • 5) Colony formation assays: Five hundred cells were seeded per well on 6-well plates and treated with different concentrations of compounds for 24 hours, then, cells were cultured with drug-free complete medium for 2 weeks with fresh medium changed every 7 days. Cells were fixed with 10% formalin and stained with 0.05% crystal violet at the end of 2 weeks period of cell culture. • 6) Flow cytometry assay: • a) Cell Cycle Analysis: Propidium iodide (PI) staining and flow cytometry were used to determine the degree of cellular apoptosis. Cells were seeded at 3×10^5 cells/well in six-well plates. Cells were treated with PG3-Oc for 48 hours. Cells were harvested, fixed by 70% ethanol, and stained by propidium iodide, then flow cytometry was performed as previously described (Smithen et al., Org. Biomol. Chem., 2013, 11, 62-68). The percentage of hypodiploid cells (sub-G1) was used to quantify dead cells in apoptosis assays. • b) Early apoptosis detection: Cells were seeded at 3×10^5 cells/well in six-well plates. Cells were treated with PG3-Oc for 48 hours. […]

CCc1c2c(nc3ccc(OC(=O)N4CCC(N5CCCCC5)CC4)cc13)-c1cc3c(c(=O)n1C2)COC(=O)[C@]3(O)CC [CPT-11, Irinotecan]
induction of 65-H2AX (DNA damage marker) / foci formation [1]: significantly induced

CCc1c(C)[nH]c(/C=C2\N=C(c3ccc[nH]3)C=C2OC)c1C [P301]
induction of cell death ([2]; SW480, DLD1, p53-null HCT116): potently induced cell death | IC50 values ([2]; SW480, DLD1, p53-null HCT116, 72 hours): within nanomolar range | expression of p53-target genes (p53-target genes): induced the expression of p53-target genes via p73

O=C(Nc1ccc2[nH]nc(-c3ccncc3)c2c1)[C@@H]1CCN(CC(=O)N2CCN(c3ccc(-c4ncccn4)cc3)CC2)C1 [SCH772984]
effect on c-Myc and PUMA (c-Myc and PUMA): potently induced the downregulation of c-Myc and the upregulation of PUMA | effect on p53 target genes DR5, p21 and Noxa (c-Myc and PUMA): did not induce DR5, shown mild upregulation of p21 and suppressed Noxa expression

N#CC(=C(/N)Sc1ccccc1N)/C(C#N)=C(\N)Sc1ccccc1N [U0126]
effect on c-Myc and PUMA (c-Myc and PUMA): potently induced the downregulation of c-Myc and the upregulation of PUMA

CCCCCc1cc(/C=C2\N=C(c3ccc[nH]3)C=C2OC)[nH]c1C [prodigiosin, Prodigiosin]
induction of 65-H2AX (DNA damage marker) / foci formation ([1]; HT29 and SW480, 8-hour treatment): did not induce

Cbz-Val-Ala-Asp-CH2F [reference compound]
formation of a sub-G1 population induced by PG3-Oc (HT29 cells): completely blocked
